Data reported in patent US20170327556A1, “CARTILAGE-BINDING FUSION PROTEINS” (Merrimack Pharmaceuticals, Inc., priority 2013, published 2017).
Entries after “also recorded” stand apart in the source; their conditions may differ.

Experiments:
[1] = system: bovine cartilage explants; assay: In vitro joint disease model (IL-1), explanted bovine cartilage: sGAG loss; type: cell-based; conditions: for cartilage matrix loss (% sGAG loss): 13.3 nM supplied in every medium change, IL-1, relative to Disease control; for cartilage matrix loss (% sGAG loss), 4 days versus 12 days of treatment: protein in medium day 0-4 only versus 12 days, IL-1, FIG. 7
Source text: (§1) Bovine cartilage explants (3 mm diameter, 1.2 mm thick) are harvested from the femoral patellar groove of 2-4 week old bovine calves. Knee joints are mounted by removing all tissue surrounding the femur, removing the femoral head with a bone saw or hack saw, and clamping in a tissue vice. Joints are aseptically opened, removing the patella, tibia and fibula. Using a 3 mm diameter disposable biopsy punch, approximately 80×3 mm diameter full thickness cartilage cores are punched from the femoral-patellar groove. A sterile knife is used to slice the cores at the cartilage-bone interface. Cores are then inserted into 3 mm diameter holes in a 1.2 mm thick sterile stainless steel plate and sliced flush with the plate using sterile razor blades to remove the excess core length, resulting in 3 mm diameter, 1.2 mm thick cartilage explants with the superficial zone cartilage intact.
(§2) Explants are cultured in 96-well plates in 300 μL of medium consisting of low glucose DMEM (1× Gibco 11885-084), Penicillin-Streptomycin (1×, Gibco 15140-122), ascorbic acid (20 μg/mL, Sigma A4403), proline (400 μM, Sigma P5607-256), non-essential amino acids (1×, Sigma M7145), and HEPES (100 mM, Gibco 15630-080). Explants from three animals (n=2-3 per animal) are used in each treatment condition for a total explant number of 8-9 per condition. Medium is changed every 2 days. On days 6 and 10, the medium is supplemented with 5 μCi/mL of ^35S-sodium sulfate (Perkin Elmer NEX041H001MC, 1 mCi).
(§3) Timepoints are taken at day 8 and 12: explant tissue is washed four times for 30 min each (2 hr total) in 1 mM unlabeled sodium sulfate in PBS. Each explant is weighed wet and frozen at −20° C. until digestion. Tissue digestion was performed with Proteinase K (Roche cat #3115879001) and each explant is digested in 1 mL 100 μg/mL Proteinase K in 50 mM Tris-HCL, 1 mM Calcium Chloride pH=8.0 buffer at 60° C. overnight. Measurement of sGAG content and DNA content is performed using standard assay methods such as those described in Hoemann, 2004, Methods in Molecular Medicine: Cartilage and Osteoarthritis. Totowa, N.J.: Humana Press Inc.; p. 127-52. ^35S-sulfate content of the digested cartilage explants was quantified by mixing 20 μL of digest with 250 μL of scintillation fluid (Perkin Elmer cat #1200-439) and counting with a WALLAC 1450 MICROBETA TRILUX scintillation counter.
(§4) Treatments were given at the following concentrations: wtIGF-1 13.3 nM=100 ng/mL (IGF-1 R&D systems 291-G1); GF-Fus1 (6x-Histidine tagged) 13.3 nM=135 ng/mL; GF-Fus2 (6x-Histidine tagged) 13.3 nM=140 ng/mL; and GF-Fus3 (6x-Histidine tagged)13.3 nM=181 ng/mL. All treatments included IL-1 and were given for either 4 days or the entire culture duration. The outcomes measured were ^35S-sulfate incorporation, DNA content, and sGAG content of plug at endpoint, and sGAG released to media for all media changes. Controls were either no treatment (Healthy) or IL-1 alone at 1 ng/mL (Disease).
(§5) FIG. 4 depicts a graph of cartilage matrix loss as measured by the cumulative percentage of total sGAG lost to the culture medium against time (days). Percentage loss is calculated by dividing the cumulative sGAG in the culture medium by the total sGAG present in the medium over the culture period plus the sGAG remaining in the explant at the end of culture. Cartilage matrix loss was reduced by each IGF fusion protein relative to the disease control at a level similar to wild-type IGF. New cartilage matrix synthesis (i.e. sulfated proteoglycan synthesis is measured by ^35S-Sulfate incorporation) during the final 48 hrs of cultures terminated at day 8 and day 12 is shown in FIGS. 5A and 5B, respectively. Cartilage matrix synthesis was increased compared to disease control by all fusion proteins (GF-Fus1, GF-Fus2, and GF-Fus3) and wild-type IGF when the fusion proteins were supplied in every medium change for the entire culture duration of 8 and 12 days (black bars). […]

[2] = system: bovine cartilage explants; assay: In vitro joint disease model (IL-1), explanted bovine cartilage: ^35S-sulfate incorporation; type: cell-based; conditions: for cartilage matrix synthesis (^35S-sulfate incorporation): supplied in every medium change for 8 or 12 days, IL-1, final 48 hrs, versus Disease control
Source text: as §1, §2, §3, §4, §5

Row | Substance | cartilage matrix loss (% sGAG loss) [1] | cartilage matrix loss (% sGAG loss), 4 days versus 12 days of treatment [1] | cartilage matrix synthesis (^35S-sulfate incorporation) [2] | cartilage matrix synthesis (^35S-sulfate incorporation) after fusion protein removal ([2]; treatment day 0-4 only, measured at day 8 and day 12, IL-1)
1 | GF-Fus3: C-terminal fusion IGF-1(LR3)-PRELP heparin binding domain | reduced | reduced sGAG loss by an equivalent amount | increase; also recorded: stimulated cartilage matrix biosynthesis | highest; also recorded: increased proteoglycan biosynthesis by an equivalent amount; also recorded: largest increase
2 | GF-Fus5: IGF-1(LR3) fused to CNA35 CB domain | reduced | – | increase | –
3 | wtIGF: Wild-type IGF-1 (R&D systems 291-G1), control [reference compound] | reduced | – | increased | –
4 | GF-Fus1: IGF-1 variant polypeptide Long [R^3]-IGF-1, no fused binding domain; used 6x-Histidine-tagged as control [reference compound] | reduced | higher sGAG loss than 12 days of treatment | increase; also recorded: stimulated cartilage matrix biosynthesis | –
5 | GF-Fus6: IGF-1(LR3) fused to CNA344 CB domain | reduced | – | increase | –
